Assay results from US4150146A, “Process for the preparation of unsymmetrically 1,3-disubstituted nitroso ureas” (priority 1976, dated 1979).

How the values were obtained:
rat leukaemia L 5222 = experiment: Chemotherapeutic activity against rat leukaemia L 5222 (cures); type: in vivo; details: for L 5222 cures %: 50% of the acute LD50 i.p., treatment on day 6 after transplantation of 5 × 10^6 cells, rats surviving 60 days after treatment considered cured
Description: (§1) The chemotherapeutic activity of Compounds 1 to 8 against rat leukaemia L 5222 and s.c. Walker carcinosarcoma is shown in the accompanying Table II, together with that of still another BCNU analog and of BCNU itself.
(§2) The chemotherapeutic activity of Compounds 1 to 8,
(§3) another analog of BCNU, and BCNU against rat leukaemia
(§4) L 5222 and s.c. Walker carcinosarcoma
(§5) ^1 50% of the acute LD50 were given i.p.
^2 Treatment on day 6 after transplantation of 5 × 10^6
^3 Rats surviving 60 days after treatment were considered cured.

[1] = tested on: s.c. Walker carcinosarcoma; experiment: Chemotherapeutic activity against s.c. Walker carcinosarcoma (tumor weight inhibition); type: in vivo, rat (Sprague Dawley); details: for s.c. Walker T.W.I.% (tumor weight inhibition): 50% of the acute LD50 i.p., treatment on day 4 after transplantation, T.W.I. on day 8, 10 Sprague Dawley rats per group
Description: as §1, §2, §3, §4, §5
^4 Treatment on day 4 after transplantation. Each group consisted of
10 Sprague Dawley vats.
^5 T.W.I. corresponds to tumor weight inhibition in % on day 8,?

Stability = type: physicochemical; details: liquid compounds
[2] = tested on: autochthonic DMBA-induced mammary carcinoma; experiment: Animal test against autochthonic DMBA-induced mammary carcinoma; type: in vivo, rat; details: in words; for activity against autochthonic DMBA-induced mammary carcinoma relative to Adriamycin / BCNU: comparison with Adriamycin (and BCNU)
[3] = Solubility in water (or tissue fluids); type: physicochemical; details: comparison with BCNU, in words
Delayed toxicity = type: in vivo; details: contrary to BCNU; preliminary

With `Cc1ccc(NC(=O)N(CCCl)N=O)cc1NC(=O)N(CCCl)N=O` [1,1'-(4-methyl-m-phenylene)bis-CNU] the “L 5222 cures %” value (rat leukaemia L 5222) was 0% and the “s.c. Walker T.W.I.% (tumor weight inhibition)” value [1] was 35%.

With `O=NN(CCCl)C(=O)NCCCl` [BCNU, 1,3-bis-(2-chloroethyl)-1-nitroso urea, reference compound] the “L 5222 cures %” value (rat leukaemia L 5222) was 70% and the “s.c. Walker T.W.I.% (tumor weight inhibition)” value [1] was 83%.

For `O=NN(CCCl)C(=O)NCCNC(=O)N(CCCl)N=O` [Compound 1, 1,1'-ethylenebis-CNU], the “L 5222 cures %” value (rat leukaemia L 5222) was 60% and the “s.c. Walker T.W.I.% (tumor weight inhibition)” value [1] was 75%.

With `O=NN(CCCl)C(=O)NCCCNC(=O)N(CCCl)N=O` [Compound 2, 1,1'-propylenebis-CNU] the “L 5222 cures %” value (rat leukaemia L 5222) was 60% and the “s.c. Walker T.W.I.% (tumor weight inhibition)” value [1] was 72%.

With `O=NN(CCCl)C(=O)NCCCCNC(=O)N(CCCl)N=O` [Compound 3, 1,1'-tetramethylenebis-CNU] the “L 5222 cures %” value (rat leukaemia L 5222) was 75% and the “s.c. Walker T.W.I.% (tumor weight inhibition)” value [1] was 77%.

For `O=NN(CCCl)C(=O)NCCCCCNC(=O)N(CCCl)N=O` [Compound 4, 1,1'-pentamethylenebis-CNU], the “L 5222 cures %” value (rat leukaemia L 5222) was 30% and the “s.c. Walker T.W.I.% (tumor weight inhibition)” value [1] was 68%.

With `O=NN(CCCl)C(=O)NCCCCCCNC(=O)N(CCCl)N=O` [Compound 5, 1,1'-hexamethylenebis-CNU] the “L 5222 cures %” value (rat leukaemia L 5222) was 50% and the “s.c. Walker T.W.I.% (tumor weight inhibition)” value [1] was 70%.

In the case of `O=NN(CCCl)C(=O)NCCO` [Compound 6, 1-(2-hydroxyethyl)-3-(2-chloroethyl)-3-nitroso urea], the “L 5222 cures %” value (rat leukaemia L 5222) is reported as 90%, the “chemotherapeutic activity against rat leukaemia L 5222 and s.c. Walker carcinosarcoma (in words)” value (rat leukaemia L 5222; summary of Table II, both tumor models) is reported as “outstanding activity” and the “s.c. Walker T.W.I.% (tumor weight inhibition)” value [1] is reported as 85%.

With `O=NN(CCCl)C(=O)NCCCO` [Compound 7, 1-(3-hydroxypropyl)-CNU] the “L 5222 cures %” value (rat leukaemia L 5222) was 10%, the “s.c. Walker T.W.I.% (tumor weight inhibition)” value [1] was 0% and the “stability (for elementary analysis)” value (Stability) was “not stable enough for elementary analysis”.

For `O=NN(CCCl)C(=O)NCCCCO` [Compound 8, 1-(4-hydroxybutyl)-CNU], the “L 5222 cures %” value (rat leukaemia L 5222) was 5%, the “s.c. Walker T.W.I.% (tumor weight inhibition)” value [1] was 4% and the “stability (for elementary analysis)” value (Stability) was “not stable enough for elementary analysis”.

In the case of `CS(=O)(=O)OCCNC(=O)N(CCCl)N=O` [Compound 9], the “activity against rat autochthonic DMBA-induced mammary carcinoma” value ([2]; animal test) is reported as “excellent activity” and the “activity against autochthonic DMBA-induced mammary carcinoma relative to Adriamycin / BCNU” value [2] is reported as “significantly exceeding that of "Adriamycin"”.

In the case of `NC(=O)CNC(=O)N(CCCl)N=O` [Compound 10, 2-(3-(2-chloroethyl))-3-nitrosoureido acetamide], the “activity against s.c. Walker carcinosarcoma relative to BCNU” value ([1]; preliminary animal test, comparison with BCNU) is reported as “same activity against s.c. Walker carcinosarcoma as BCNU”, the “solubility in water relative to BCNU” value [3] is reported as “better solubility in water” and the delayed toxicity (Delayed toxicity) is reported as “little delayed toxicity”. For the same compound, the “activity against autochthonic DMBA-induced mammary carcinoma relative to Adriamycin / BCNU” value [2] was “better activity than "Adriamycin" or BCNU”.
